Converted amounts (≈) assume the structure as drawn.
Experiments:
[1] = test system: S. aureus 340; assay: MIC, broth microdilution; assay type: cell-based, Staphylococcus aureus; conditions: Staphylococcus aureus, 340, 24 h
Description: (§1) Antimicrobial activity of the compounds was studied by determination of minimal inhibitory concentrations (MIC) according to the NCCLS guidelines M7-A2 using the microbroth dilution methods. The bacteria strains were grown on trypticase soy agar (Becton Dickinson) at 37 °C for 24 h. Inocula were prepared in TCE (tryptone 0.1%, […], wt/vol) by ajusting the turbidity at 623 nm to obtain 1–3 10^5 CFU/mL.
(§2) Antimicrobial activities of the compounds were determined by using a broth microdilution method performed in sterile 96-well microplates. All compounds were solubilized in water at a concentration of 10 mM and were transferred to each microplate well in order to obtain a two-fold serial dilution in 100 µL of broth and 100 µL of inoculum containing 2–6 10^5 CFU of each bacterium were added to each well. Some wells were reserved for positive controls and inoculum viability.

[2] = test system: P. aeruginosa 1051575; assay: MIC, broth microdilution; assay type: cell-based, Pseudomonas aeruginosa; conditions: Pseudomonas aeruginosa, 1051575, 24 h, 24 h
Description: as §1, §2

[3] = test system: Chinese hamster Ovary cells (CHO-K1); assay: Cytotoxicity assay (WST-1 / Neutral Red); assay type: cell-based; conditions: 24-h incubation; for IC50: Cricetulus griseus, 24 h
Description: The cytotoxic activities of compounds were assessed on Chinese hamster Ovary cells (CHO-K1) provided from ATCC-LGC Standards Sarl (Molsheim, France). Cells were maintained in Mc Coy’s 5A (CHO) medium supplemented with 10% bovine calf serum, 2 mM glutamine, and 100 U mL^−1/10 µg mL^−1 penicillin/streptomycin mixtures. For the cytotoxicity experiments, they were seeded in 96-well plates and incubated at 37 °C in humidified atmosphere containing 5% CO2 overnight, then concentrations of compounds were incorporated in triplicate cultures. After a 24-h incubation period at 37 °C, cells were submitted to three successive washes in phosphate buffer saline (PBS) and cell viability was evaluated by two different vital dyes: • i. A first set of cell cultures was incubated in PBS containing 10% WST-1 for 30 min at 37 °C, 5% CO2. Cell viability was evaluated by the assessment of WST-1 absorbance at 450 nm in a microplate spectrophotometer. • ii. A second set of cell cultures was placed into Neutral Red medium (50 μg mL^−1 Neutral Red in complete medium) and incubated for 3 h at 37 °C, 5% CO2. Then the Neutral Red medium was removed and the distaining solution (50% ethanol, 1% acetic acid, 49% distilled water; 50 µL per well) was added into the wells. The plates were shaken for 15–20 min at room temperature in the dark. Cell viability was evaluated by the assessment of absorbance at 540 nm in a microplate spectrophotometer.
Results were expressed as percentages of cell viability about the control (culture medium-only), which corresponded to 100% cell viability. Dose-response curves were calculated by non-linear regression analysis with TableCurve 2D software (V 5.0.1) (Systat Software Inc., San Jose, CA, USA). The Inhibitory Concentration 50% (IC50) was defined as the concentration of compounds that induced a 50% decrease of viable cells.

[4] = test system: S. aureus ATCC 25923; assay: MIC, broth microdilution; assay type: cell-based, Staphylococcus aureus; conditions: Staphylococcus aureus, ATCC25923, 24 h, ATCC strain
Description: as §1, §2

[5] = test system: E. faecalis ATCC29212; assay: MIC, broth microdilution; assay type: cell-based, Enterococccus faecalis; conditions: Enterococcus faecalis, ATCC29212, 24 h, ATCC strain, read-out: MIC E. faecalis 29212
Description: as §1, §2

[6] = test system: S. intermedius 1051997; assay: MIC, broth microdilution; assay type: cell-based, Staphylococcus intermedius; conditions: Staphylococcus intermedius, 1051997, 24 h, 24 h
Description: as §1, §2

[7] = test system: P. aeruginosa ATCC 27853; assay: MIC, broth microdilution; assay type: cell-based, Pseudomonas aeruginosa; conditions: Pseudomonas aeruginosa, ATCC27853, 24 h, ATCC strain
Description: as §1, §2

[8] = test system: E. coli 1956; assay: MIC, broth microdilution; assay type: cell-based, Escherichia coli; conditions: Escherichia coli, 1956, 24 h
Description: as §1, §2

[9] = test system: E. coli ATCC 25922; assay: MIC, broth microdilution; assay type: cell-based, Escherichia coli; conditions: Escherichia coli, ATCC25922, 24 h, ATCC strain
Description: as §1, §2

## CC(C)OC(=O)CCC(C)C1CCC2C3CCC4CC(NCCCNCCCN)CCC4(C)C3CC(O)C12C (stereo not shown) [Claramine A04]
[1]
  MIC: 3 µg/mL (≈ 5.48 µM)
[2]
  MIC: 14 µg/mL (≈ 25.6 µM)
[3]
  IC50: 57 µg/mL (≈ 104 µM)

## CCOC(=O)CCC(C)C1CCC2C3CCC4CC(NCCCNCCCCNCCCN)CCC4(C)C3CC(O)C12C (stereo not shown) [Claramine A20]
[3]
  IC50: 25 µg/mL (≈ 41.3 µM)

## CCCCOC(=O)CCC(C)C1CCC2C3CCC4CC(NCCCNCCCCNCCCN)CCC4(C)C3CC(O)C12C (stereo not shown) [Claramine A21]
[3]
  IC50: 4 µg/mL (≈ 6.32 µM)

## CC(CCC(=O)OC(C)(C)C)C1CCC2C3CCC4CC(NCCCNCCCCNCCCN)CCC4(C)C3CC(O)C12C (stereo not shown) [Claramine A22]
[1]
  MIC: < 4 µg/mL
[3]
  IC50 CHO: 38 µg/mL (≈ 60 µM)
  IC50: > 35 µg/mL

## CC(CCC(=O)OCC(F)(F)F)C1CCC2C3CCC4CC(NCCCNCCCCNCCCN)CCC4(C)C3CC(O)C12C (stereo not shown) [Claramine A24]
[3]
  IC50: 76 µg/mL (≈ 115 µM)

## CC(CCC(=O)OC(C(F)(F)F)C(F)(F)F)C1CCC2C3CCC4CC(NCCCNCCCCNCCCN)CCC4(C)C3CC(O)C12C (stereo not shown) [Claramine A25]
[3]
  IC50: 4 µg/mL (≈ 5.5 µM)

## CC(C)OC(=O)CCC(C)C1CCC2C3CCC4CC(NCCCN5CCN(CCCN)CC5)CCC4(C)C3CC(O)C12C (stereo not shown) [Claramine A26]
[1]
  MIC: 62 µg/mL (≈ 100 µM)
[2]
  MIC: 62 µg/mL (≈ 100 µM)
[3]
  IC50: 160 µg/mL (≈ 259 µM)

## CC(C)OC(=O)CCC(C)C1CCC2C3CCC4CC(NCCN(CCN)CCN)CCC4(C)C3CC(O)C12C (stereo not shown) [Claramine A29]
[1]
  MIC: 14 µg/mL (≈ 24.9 µM)
[2]
  MIC: 56 µg/mL (≈ 99.5 µM)
[3]
  IC50: 141 µg/mL (≈ 250 µM)

## COC(=O)CCC(C)C1CCC2C3C(O)CC4CC(NCCCNCCCN)CCC4(C)C3CC(O)C12C (stereo not shown) [Claramine B02]
[1]
  MIC: 7 µg/mL (≈ 13.1 µM)
[2]
  MIC: 13 µg/mL (≈ 24.3 µM)
[3]
  IC50: 27 µg/mL (≈ 50.4 µM)

## CC(C)OC(=O)CCC(C)C1CCC2C3C(O)CC4CC(NCCCNCCCCNCCCN)CCC4(C)C3CC(O)C12C (stereo not shown) [Claramine B12]
[1]
  MIC: 8 µg/mL (≈ 12.6 µM)
[4]
  MIC: 8 µg/mL (≈ 12.6 µM)
[5]
  MIC: 32 µg/mL (≈ 50.4 µM)
[6]
  MIC: 4 µg/mL (≈ 6.3 µM)
[2]
  MIC: 8 µg/mL (≈ 12.6 µM)
[7]
  MIC: 16 µg/mL (≈ 25.2 µM)
[8]
  MIC: 62 µg/mL (≈ 97.6 µM)
[9]
  MIC: 4 µg/mL (≈ 6.3 µM)
[3]
  IC50: 48 µg/mL (≈ 75.6 µM)

## CC(C)OC(=O)CCC(C)C1CCC2C3C(O)CC4CC(NCCCNCCCCN)CCC4(C)C3CC(O)C12C (stereo not shown) [Claramine B14]
[1]
  MIC: 14 µg/mL (≈ 24.2 µM)
[4]
  MIC: 7 µg/mL (≈ 12.1 µM)
[5]
  MIC: 30 µg/mL (≈ 51.9 µM)
[6]
  MIC: 4 µg/mL (≈ 6.92 µM)
[2]
  MIC: 7 µg/mL (≈ 12.1 µM)
[7]
  MIC: 15 µg/mL (≈ 26 µM)
[8]
  MIC: 30 µg/mL (≈ 51.9 µM)
[9]
  MIC: 4 µg/mL (≈ 6.92 µM)
[3]
  IC50: 67 µg/mL (≈ 116 µM)

## CC(C)OC(=O)CCC(C)C1CCC2C3C(O)CC4CC(NCCCNCCCN)CCC4(C)C3CC(O)C12C (stereo not shown) [Claramine B15]
[1]
  MIC: 14 µg/mL (≈ 24.8 µM)
[2]
  MIC: 28 µg/mL (≈ 49.7 µM)
[3]
  IC50: 113 µg/mL (≈ 200 µM)

## CC(C)OC(=O)CCC(C)C1CCC2C3C(O)CC4CC(NCCCN5CCN(CCCN)CC5)CCC4(C)C3CC(O)C12C (stereo not shown) [Claramine B16]
[1]
  MIC: 16 µg/mL (≈ 25.3 µM)
[2]
  MIC: 16 µg/mL (≈ 25.3 µM)
[3]
  IC50: 260 µg/mL (≈ 411 µM)
